Laboratory results from patent US11739098B2 (BRISTOL-MYERS SQUIBB COMPANY, priority 2017, dated 2023).

Experiments:
Assay type in all cases: cell-based
human TLR9 = biological target: T1, human TLR9 (Homo sapiens, UniProt Q9NR96); test: TLR9 inhibition reporter assay (HEK-Blue cells, SEAP reporter, ODN2006 stimulation); details: HEK-Blue cells overexpressing human TLR9, SEAP reporter, ODN2006 5 nM
T1 construct: host or cells: HEK-Blue cells (HEK293-derived reporter line)
T1 sequence (Q9NR96 26-1032): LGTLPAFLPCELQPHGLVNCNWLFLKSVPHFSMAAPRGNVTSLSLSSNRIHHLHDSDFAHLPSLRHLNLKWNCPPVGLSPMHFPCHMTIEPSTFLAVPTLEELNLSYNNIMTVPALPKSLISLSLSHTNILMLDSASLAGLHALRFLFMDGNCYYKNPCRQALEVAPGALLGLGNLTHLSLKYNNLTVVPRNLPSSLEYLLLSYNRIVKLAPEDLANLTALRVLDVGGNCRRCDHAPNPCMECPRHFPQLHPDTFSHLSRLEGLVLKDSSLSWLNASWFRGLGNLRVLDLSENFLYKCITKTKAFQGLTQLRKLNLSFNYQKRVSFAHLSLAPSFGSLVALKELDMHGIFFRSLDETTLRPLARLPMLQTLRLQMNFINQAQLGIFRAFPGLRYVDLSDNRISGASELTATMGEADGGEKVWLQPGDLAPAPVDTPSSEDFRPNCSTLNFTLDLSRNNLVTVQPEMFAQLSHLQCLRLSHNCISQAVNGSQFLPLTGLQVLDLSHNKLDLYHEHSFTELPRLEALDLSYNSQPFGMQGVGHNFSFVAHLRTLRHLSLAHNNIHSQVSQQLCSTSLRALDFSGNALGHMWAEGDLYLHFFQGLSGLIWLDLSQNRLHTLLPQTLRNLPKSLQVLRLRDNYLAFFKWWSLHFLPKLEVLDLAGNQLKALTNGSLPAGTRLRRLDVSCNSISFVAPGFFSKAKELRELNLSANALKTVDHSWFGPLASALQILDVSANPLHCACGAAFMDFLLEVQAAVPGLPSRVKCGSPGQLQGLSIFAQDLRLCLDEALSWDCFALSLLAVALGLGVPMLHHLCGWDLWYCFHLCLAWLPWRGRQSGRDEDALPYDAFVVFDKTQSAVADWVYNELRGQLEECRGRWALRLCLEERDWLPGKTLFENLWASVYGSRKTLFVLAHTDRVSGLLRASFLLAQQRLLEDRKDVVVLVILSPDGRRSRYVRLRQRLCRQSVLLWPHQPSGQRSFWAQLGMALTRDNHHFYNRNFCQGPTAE
Procedure, shortened: (§1)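 Cells seeded per well (15000 TLR7, 20,000 TLR8, 25,000 TLR9); compound added over 0.05 nM–50 μM for 30 min at room temperature; agonist added (TLR7 gardiquimod 7.5 μM, TLR8 R848 15.9 μM, TLR9 ODN2006 5 nM); 22 h at 37 °C; SEAP measured; percent inhibition calculated.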

human TLR7 = biological target: T2, human TLR7 (Homo sapiens, UniProt Q9NYK1); test: TLR7 inhibition reporter assay (HEK-Blue cells, SEAP reporter, gardiquimod stimulation); details: HEK-Blue cells overexpressing human TLR7, SEAP reporter, gardiquimod 7.5 μM
T2 construct: host or cells: HEK-Blue cells (HEK293-derived reporter line)
T2 sequence (Q9NYK1 27-1049): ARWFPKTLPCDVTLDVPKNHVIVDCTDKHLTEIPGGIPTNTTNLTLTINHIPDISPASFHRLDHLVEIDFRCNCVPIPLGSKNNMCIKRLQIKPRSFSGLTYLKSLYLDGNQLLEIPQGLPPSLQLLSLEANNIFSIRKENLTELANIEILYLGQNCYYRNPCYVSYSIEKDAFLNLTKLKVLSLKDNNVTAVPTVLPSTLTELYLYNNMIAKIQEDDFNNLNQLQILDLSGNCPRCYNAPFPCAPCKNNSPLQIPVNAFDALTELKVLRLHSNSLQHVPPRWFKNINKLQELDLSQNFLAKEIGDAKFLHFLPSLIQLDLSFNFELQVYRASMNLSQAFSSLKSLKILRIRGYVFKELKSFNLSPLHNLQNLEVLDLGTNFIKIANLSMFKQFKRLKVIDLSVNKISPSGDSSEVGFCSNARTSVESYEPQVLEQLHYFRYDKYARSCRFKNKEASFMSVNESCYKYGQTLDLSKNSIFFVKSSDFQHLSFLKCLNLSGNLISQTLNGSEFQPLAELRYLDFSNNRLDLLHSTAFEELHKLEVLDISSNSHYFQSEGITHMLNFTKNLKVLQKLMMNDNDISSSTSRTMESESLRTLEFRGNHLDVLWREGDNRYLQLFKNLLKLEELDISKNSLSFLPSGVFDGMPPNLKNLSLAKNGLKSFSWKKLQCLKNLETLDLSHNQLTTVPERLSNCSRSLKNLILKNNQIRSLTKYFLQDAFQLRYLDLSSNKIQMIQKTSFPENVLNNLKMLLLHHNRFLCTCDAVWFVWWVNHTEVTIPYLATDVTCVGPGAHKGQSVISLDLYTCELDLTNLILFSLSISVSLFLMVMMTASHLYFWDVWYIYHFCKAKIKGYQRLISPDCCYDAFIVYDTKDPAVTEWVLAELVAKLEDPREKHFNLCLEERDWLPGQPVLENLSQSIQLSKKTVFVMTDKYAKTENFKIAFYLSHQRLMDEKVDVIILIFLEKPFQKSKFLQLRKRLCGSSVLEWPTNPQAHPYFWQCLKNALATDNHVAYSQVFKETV
Procedure, shortened: as §1

human TLR8 = biological target: T3, human TLR8 (Homo sapiens, UniProt Q9NR97); test: TLR8 inhibition reporter assay (HEK-Blue cells, SEAP reporter, R848 stimulation); details: HEK-Blue cells overexpressing human TLR8, SEAP reporter, R848 15.9 μM
T3 construct: host or cells: HEK-Blue cells (HEK293-derived reporter line)
T3 sequence (Q9NR97 27-1041): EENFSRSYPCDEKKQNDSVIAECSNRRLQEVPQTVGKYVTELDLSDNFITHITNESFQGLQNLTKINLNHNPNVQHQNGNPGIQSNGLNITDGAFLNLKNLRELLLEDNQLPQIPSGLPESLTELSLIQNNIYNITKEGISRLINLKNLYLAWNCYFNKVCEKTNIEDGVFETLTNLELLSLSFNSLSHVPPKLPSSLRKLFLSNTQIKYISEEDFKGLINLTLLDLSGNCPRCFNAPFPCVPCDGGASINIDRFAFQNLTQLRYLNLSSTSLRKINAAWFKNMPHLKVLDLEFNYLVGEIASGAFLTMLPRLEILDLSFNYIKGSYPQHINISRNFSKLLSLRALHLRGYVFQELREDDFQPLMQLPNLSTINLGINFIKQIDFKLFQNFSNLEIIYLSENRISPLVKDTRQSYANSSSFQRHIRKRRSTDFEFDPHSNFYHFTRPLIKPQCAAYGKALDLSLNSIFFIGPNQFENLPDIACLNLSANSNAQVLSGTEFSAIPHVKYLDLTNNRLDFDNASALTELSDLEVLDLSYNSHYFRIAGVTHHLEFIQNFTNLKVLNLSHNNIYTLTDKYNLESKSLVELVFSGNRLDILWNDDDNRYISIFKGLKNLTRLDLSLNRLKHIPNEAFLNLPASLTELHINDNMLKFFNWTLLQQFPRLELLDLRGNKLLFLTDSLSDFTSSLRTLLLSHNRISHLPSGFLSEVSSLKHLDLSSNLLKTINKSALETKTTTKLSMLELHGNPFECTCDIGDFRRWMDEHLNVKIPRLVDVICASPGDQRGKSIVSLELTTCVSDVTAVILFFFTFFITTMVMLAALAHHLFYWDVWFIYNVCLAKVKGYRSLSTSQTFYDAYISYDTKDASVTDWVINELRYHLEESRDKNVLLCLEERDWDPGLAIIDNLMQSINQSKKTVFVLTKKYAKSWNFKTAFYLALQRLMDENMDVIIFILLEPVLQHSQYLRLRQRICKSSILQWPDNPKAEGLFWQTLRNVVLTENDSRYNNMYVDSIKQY
Procedure, shortened: as §1

Compound	IC50 (human TLR9) [nM]	IC50 (human TLR7) [nM]	IC50 (human TLR8) [nM]
CNC(=O)CN1CCC(c2ccc3[nH]c(-c4cc(C)n5nccc5c4)c(C(C)C)c3c2)CC1 [Example 443, 2-(4-(3-isopropyl-2-(7-methylpyrazolo[1,5-a]pyridin-5-yl)-1H-indol-5-yl)piperidin-1-yl)-N-methylacetamide]	1000 to 50000	< 100	< 100
Cc1nnn2ccc(-c3[nH]c4ccc(C5CCN(CCS(C)(=O)=O)CC5)cc4c3C(C)C)cc12 [Example 793, 5-(3-isopropyl-5-(1-(2-(methylsulfonyl)ethyl)piperidin-4-yl)-1H-indol-2-yl)-3-methyl-[1,2,3]triazolo[1,5-a]pyridine]	1000 to 50000	< 100	< 100
CCc1c(-c2ccc3nccn3c2)[nH]c2cc(F)c(C3CCNCC3)c(F)c12 [Example 257, 6-(3-ethyl-4,6-difluoro-5-(piperidin-4-yl)-1H-indol-2-yl)imidazo[1,2-a]pyridine]	< 100	< 100	< 100
Cc1nnn2ccc(-c3[nH]c4ccc(C5CCN(C6CCS(=O)(=O)CC6)CC5)cc4c3C(C)C)cc12 [Example 792, 4-(4-(3-isopropyl-2-(3-methyl-[1,2,3]triazolo[1,5-a]pyridin-5-yl)-1H-indol-5-yl)piperidin-1-yl)tetrahydro-2H-thiopyran 1,1-dioxide]	1000 to 50000	< 100	< 100
COc1c(C)c(-c2[nH]c3ccc(C4CCN(C5COC5)CC4)cc3c2C(C)C)nn2ncnc12 [Example 731, 6-(3-isopropyl-5-(1-(oxetan-3-yl)piperidin-4-yl)-1H-indol-2-yl)-8-methoxy-7-methyl-[1,2,4]triazolo[1,5-b]pyridazine]	1000 to 50000	< 100	< 100
Cc1cnc2ccc(-c3[nH]c4ccc(C5CCN(C(=O)CN(C)C)CC5)cc4c3C(C)C)cn12 [Example 522, 2-(dimethylamino)-1-(4-(3-isopropyl-2-(3-methylimidazo[1,2-a]pyridin-6-yl)-1H-indol-5-yl)piperidin-1-yl)ethan-1-one]	100 to 1000	100 to 1000	100 to 1000
CC(C)c1c(-c2ccnc3cn[nH]c23)[nH]c2ccc(C3CCNCC3)cc12 [Example 54, 7-(3-isopropyl-5-(piperidin-4-yl)-1H-indol-2-yl)-1H-pyrazolo[4,3-b]pyridine]	100 to 1000	< 100	< 100
Cc1nnn2ccc(-c3[nH]c4ccc(C5CCN(C(=O)CN(C)C)CC5)cc4c3C(C)C)cc12 [Example 487, 2-(dimethylamino)-1-(4-(3-isopropyl-2-(3-methyl-[1,2,3]triazolo[1,5-a]pyridin-5-yl)-1H-indol-5-yl)piperidin-1-yl)ethan-1-one]	1000 to 50000	< 100	< 100
Cc1cc(-c2[nH]c3ccc(C4CCN(C(=O)CN5CC6(COC6)C5)CC4)cc3c2C(C)C)cn2nnnc12 [Example 471, 1-(4-(3-isopropyl-2-(8-methyltetrazolo[1,5-a]pyridin-6-yl)-1H-indol-5-yl)piperidin-1-yl)-2-(2-oxa-6-azaspiro[3.3]heptan-6-yl)ethan-1-one]	1000 to 50000	< 100	< 100
COc1cc(-c2[nH]c3ccc(C4CCN(CC(N)=O)CC4)cc3c2C(C)C)nn2ncnc12 [Example 284, 2-(4-(3-isopropyl-2-(8-methoxy-[1,2,4]triazolo[1,5-b]pyridazin-6-yl)-1H-indol-5-yl)piperidin-1-yl)acetamide]	1000 to 50000	< 100	< 100
Cc1c(-c2[nH]c3ccc(C4CCNCC4)cc3c2C(C)C)ccc2c1cnn2C [Example 94, 5-(3-isopropyl-5-(piperidin-4-yl)-1H-indol-2-yl)-1,4-dimethyl-1H-indazole]	1000 to 50000	< 100	< 100
CC(C)c1c(-c2ccc(C#N)c3ncccc23)[nH]c2ccc(C3CCN(CC(C)(C)O)CC3)cc12 [Example 766, 5-(5-(1-(2-hydroxy-2-methylpropyl)piperidin-4-yl)-3-isopropyl-1H-indol-2-yl)quinoline-8-carbonitrile]	1000 to 50000	< 100	< 100
CCc1c(-c2ccnc3[nH]ccc23)[nH]c2ccc(C3CCN(C4CCN(CC)CC4)CC3)cc12 [Example 837, 4-(3-ethyl-5-(1′-ethyl-[1,4′-bipiperidin]-4-yl)-1H-indol-2-yl)-1H-pyrrolo[2,3-b]pyridine]	100 to 1000	< 100	< 100
CCc1c(-c2ccnc3[nH]ncc23)[nH]c2ccc(C3CCN(Cc4cc(-c5ccccc5)on4)CC3)cc12 [Example 897, 3-((4-(3-ethyl-2-(1H-pyrazolo[3,4-b]pyridin-4-yl)-1H-indol-5-yl)piperidin-1-yl)methyl)-5-phenylisoxazole]	1000 to 50000	1000 to 50000	100 to 1000
